We go through 13 compounds from paper PMC11979685, “Synthesis of Derivatives of the Antibiotic Albicidin: The N‐Terminal Fragment as Key to Control Potency and Resistance Mediated by the Binding Protein AlbA” (Chemistry (Weinheim an Der Bergstrasse, Germany), 2025).

Converted amounts (≈) assume the structure as drawn. Like-named read-outs stand apart in the source and are kept apart here.

One test concerns E. coli. The test is described as follows: MIC against E. coli in presence of 50 % human serum. The format is cell-based. Particulars: Escherichia coli, read-out: MICEc 50%HS.
Test [1] has as its system panel of gram-positive and gram-negative bacteria. Nature of the test: MIC against panel of bacteria. The format is cell-based. Conditions: read-out: MIC vs B. subtilis and M. luteus. On the procedure: After completing the syntheses, the antibacterial activity of A‐variations 4–24 was assessed by determination of MIC values against a basic set of gram‐negative and gram‐positive bacteria (Table 1). The monocyclic derivatives 4–8 featuring a cyano‐, trifluoromethyl‐, methoxy‐ and fluoro‐ substituent in para‐position were very active against the gram–negative E. coli and S. typhimurium strains with MIC values in the same range as 3rd Gen albicidin 3 or ciprofloxacin which is the gold standard for gyrase inhibitors. […] These findings are in agreement with previous studies showing good activities for cyano, trifluoromethyl, methoxy and fluoro substituents in the para‐position of different aromatic rings in the building block A.[12, 13] The activity of the monocyclic derivatives 4–8 against the gram‐positive strains B. subtilis and M. luteus were similar but slightly less pronounced compared to the lead structure 3.
1.1 Determination of Minimal Inhibitory Concentrations (MIC)
Minimal inhibitory concentration (MIC) against selected bacterial strains values were determined according to the ninth edition of the Approved Standard M07-A9.[1] 20 μL of cryo stocks of bacterial strains were suspended in 20 mL LB medium (Lysogeny broth: 10 g/L peptone, 5 g/L yeast extract, 5 g/L NaCl). Following incubation overnight at 37°C, 200 rpm, the test inoculum was adjusted by 0.5 McFarland Standard in cation adjusted Mueller-Hinton broth (BBLTM Mueller-Hinton Broth II, Becton, Dickinson and Company, New Jersey, USA) to approximately 1x10^6 CFU mL-1. 95 μL of the bacterial inoculum were applied per well of a 96-well plate. Albicidin and albicidin derivatives 3−24 were dissolved in DMSO (100%) to an initial concentration of 2560 μg/mL and serially diluted in DMSO (100%). Initial solution and serial dilutions of Ciprofloxacin were prepared in 0.1 N HCL, respectively. […] Both microdilution trays and agar plates were incubated at 30−37°C for 16 h and subsequently analyzed for growth inhibition by naked eye. […]

A further test relates to AlbAL. Nature of the test: Transcription activation (TA) reporter assay, pAlbA-ilux luminescence. The format is cell-based, Klebsiella oxytoca. Particulars: luminescence normalized to 2nd Gen albicidin 2. On the procedure:
Finally, we investigated if synthetic variations of building block A are able to evade the effects of the resistance protein AlbA. Therefore, we carried out a qualitative growth inhibition assay with derivatives 4–24 in presence of an equimolar amount of purified AlbAS. After incubation of the cultures overnight, the growth of the bacteria was evaluated. The ability of AlbAS to sufficiently sequester an albicidin derivative from the supernatant allowed E. coli cells to accumulate in a visible cell pellet. Second, we performed a quantitative transcription‐activation reporter assay[22] to assess transcriptional regulation by AlbAL. The promoter sequence pAlbA was inserted into a reporter vector that encodes the ilux luminescence cassette.[22] The luminescence signals elicited by ligand binding of synthetic variations to AlbAL was compared and normalized to the signal induced by 2nd Gen albicidin 2 and are hereby referred to as relative transcription activation (TA^%). The combination of both assays prompted us to categorize the experimental outcomes (Figure 4) in four groups:
Figure 4 Characterization of AlbA resistance against derivatives 2, 4–24. GIA: Qualitative growth inhibition assay against E. coli DSM 1116. (−): Derivative unable to inhibit the growth of E. coli in presence of AlbAS. (+): Derivative inhibits growth of E. coli in presence of AlbAS. […] For details see SI Figure 9. Transcription activation (TA) assay: luminescence elicited by 2nd Gen albicidin 2 from the TA assay was normalized to 100 % and the luminescence signal of tested derivatives provided: relative luminescence [%]=luminescence [derivative]/luminescence [2]×100 %. Green bars indicate low relative luminescence (<40 %) and red bars indicate high relative luminescence (>50 %). Error bars show the standard deviations of triplicate measurements. TEXT PRINTED IN THE PICTURE: 2: E. coli inhibition +AlbA: − | 4: E. coli inhibition +AlbA: + | 9: E. coli inhibition +AlbA: + | 11: E. coli inhibition +AlbA: + | 12: E. coli inhibition +AlbA: + | 13: E. coli inhibition +AlbA: ~ | 14: E. coli inhibition +AlbA: − | 16: E. coli inhibition +AlbA: − | 17: E. coli inhibition +AlbA: − | 18: E. coli inhibition +AlbA: − | 19: E. coli inhibition +AlbA: − | 20: E. coli inhibition +AlbA: + | 21: E. coli inhibition +AlbA: − | 22: E. coli inhibition +AlbA: − | 23: E. coli inhibition +AlbA: − | 24: E. coli inhibition +AlbA: − […]
Transcription activation (TA) assay
Transcription reporter assays were conducted as described previously.[4] In short, E. coli BL21(DE3) were transformed with pET15b-AlbA, an expression construct without His-tag, and pCS-pAlbA-ilux, a reporter vector containing the pAlbA promoter and the improved bacterial luciferase reporter gene cassette ILUX.[7] […] Sixty data points were measured on a TECAN Infinite 200 microplate reader, after orbital shaking with for 10 min, with an amplitude of 3 mm, and a wait time of one minute between each measurement. At each time point, the absorbance at 600 nm ([…] bandwidth and 25 flashes) and the luminescence (500 ms integration time, no attenuation) were measured. Each assay was measured in triplicate at 30°C. The luminescence data was normalized to the OD before the background signal (wells with no albicidin added) was subtracted and the mean + standard deviation of each measurement point was calculated. […]
(In a reporter assay the amount or activity of a reporter protein is the signal.)

The mark [2] stands for this setting: E. coli in presence of 50 % human serum.
Setting [3] is: gram-positive bacteria B. subtilis and M. luteus.

`COc1c(NC(=O)c2ccc(NC(=O)c3ccc(NC(=O)[C@H](Cc4c[nH]nn4)NC(=O)c4ccc(NC(=O)c5ccc(C#N)cc5)cc4)cn3)c(OC)c2O)ccc(C(=O)O)c1O` [compound 4]: the MIC in the test with E. coli (setting [2]) was 1 µg/mL.
For the compound `COc1c(NC(=O)c2ccc(NC(=O)c3ccc(NC(=O)[C@H](Cc4c[nH]nn4)NC(=O)c4ccc(NC(=O)[C@@H](C)Oc5ccc(O)cc5)cc4)cn3)c(OC)c2O)ccc(C(=O)O)c1O` [compound 9], the MIC in the test with E. coli (setting [2]) is ≥ 8 µg/mL.
Turning to `COc1c(NC(=O)c2ccc(NC(=O)c3ccc(NC(=O)[C@H](Cc4c[nH]nn4)NC(=O)c4ccc(NC(=O)c5ccc6ccccc6n5)cc4)cn3)c(OC)c2O)ccc(C(=O)O)c1O` [compound 11], the values for the MIC (in test [1] (setting [3]); in the test on E. coli (setting [2])) were ≤ 0.016 µg/mL and 2 µg/mL, respectively.
Consider `COc1c(NC(=O)c2ccc(NC(=O)c3ccc(NC(=O)[C@H](Cc4c[nH]nn4)NC(=O)c4ccc(NC(=O)c5cc6ccccc6cn5)cc4)cn3)c(OC)c2O)ccc(C(=O)O)c1O` [compound 12], for which the results for the MIC (in test [1]; in the test on E. coli) were 0.063 µg/mL (≈ 0.0715 µM) and 1 µg/mL, respectively.
As to `COc1c(NC(=O)c2ccc(NC(=O)c3ccc(NC(=O)[C@H](Cc4c[nH]nn4)NC(=O)c4ccc(NC(=O)c5cnc6ccccc6c5)cc4)cn3)c(OC)c2O)ccc(C(=O)O)c1O` [compound 13], the MIC in test [1] (setting [3]) was found to be 0.125 µg/mL (≈ 0.142 µM).
Regarding `COc1c(NC(=O)c2ccc(NC(=O)c3ccc(NC(=O)[C@H](Cc4c[nH]nn4)NC(=O)c4ccc(NC(=O)c5ccc6ncccc6c5)cc4)cn3)c(OC)c2O)ccc(C(=O)O)c1O` [compound 14], the MIC in the test with E. coli (setting [2]) was 4 µg/mL.
For `CCn1cc(C(=O)Nc2ccc(C(=O)N[C@@H](Cc3c[nH]nn3)C(=O)Nc3ccc(C(=O)Nc4ccc(C(=O)Nc5ccc(C(=O)O)c(O)c5OC)c(O)c4OC)nc3)cc2)c(=O)c2ccc(C)nc21` [compound 18], the “relative transcription activation (TA%), in words” value with AlbAL is recorded as “low”. Moreover, in the test with E. coli (setting [2]), the MIC turned out to be 8 µg/mL.
On to `CCn1cc(C(=O)Nc2ccc(C(=O)N[C@@H](Cc3c[nH]nn3)C(=O)Nc3ccc(C(=O)Nc4ccc(C(=O)Nc5ccc(C(=O)O)c(O)c5OC)c(O)c4OC)nc3)cc2)c(=O)c2cc3c(cc21)OCO3` [compound 19], for which the “relative transcription activation (TA%), in words” value in the test with AlbAL is reported as “low”.
Consider `COc1c(NC(=O)c2ccc(NC(=O)c3ccc(NC(=O)[C@H](Cc4c[nH]nn4)NC(=O)c4ccc(NC(=O)c5cc(=O)c6cc(F)ccc6o5)cc4)cn3)c(OC)c2O)ccc(C(=O)O)c1O` [compound 20], for which the MIC in the test with E. coli (setting [2]) was determined as 8 µg/mL.
For the compound `COc1c(NC(=O)c2ccc(NC(=O)c3ccc(NC(=O)[C@H](Cc4c[nH]nn4)NC(=O)c4ccc(NC(=O)c5cc6cc(O)ccc6[nH]5)cc4)cn3)c(OC)c2O)ccc(C(=O)O)c1O` [compound 21], the “relative transcription activation (TA%), in words” value in the test with AlbAL is on record as “intermediate”. Moreover, the MIC with E. coli (setting [2]) is ≥ 8 µg/mL.
In the case of `COc1c(NC(=O)c2ccc(NC(=O)c3ccc(NC(=O)[C@H](Cc4c[nH]nn4)NC(=O)c4ccc(NC(=O)c5ccc6ncsc6c5)cc4)cn3)c(OC)c2O)ccc(C(=O)O)c1O` [compound 22], in the test on E. coli (setting [2]), the MIC was determined as 0.5 µg/mL.
As for `COc1c(NC(=O)c2ccc(NC(=O)c3ccc(NC(=O)[C@H](Cc4c[nH]nn4)NC(=O)c4ccc(NC(=O)c5ccc6nc[nH]c6c5)cc4)cn3)c(OC)c2O)ccc(C(=O)O)c1O` [compound 23], the “relative transcription activation (TA%), in words” value in the test on AlbAL is on record as “low”. Moreover, the MIC in the test on E. coli (setting [2]) was ≥ 8 µg/mL.
Taken in the same sequence, the figures for `COc1c(NC(=O)c2ccc(NC(=O)c3ccc(NC(=O)[C@H](Cc4c[nH]nn4)NC(=O)c4ccc(NC(=O)c5ccc6nn[nH]c6c5)cc4)cn3)c(OC)c2O)ccc(C(=O)O)c1O` [compound 24] were “low” and 2 µg/mL.
